Our source for the IC50 values is patent publication US9718804B2, “GSK-3 inhibitors” (BRISTOL-MYERS SQUIBB COMPANY, priority 2013, dated 2017).

Each structure is given as a SMILES string.

Assay [1] has as its target GSK3α (Homo sapiens, UniProt P49840). As to the kind of experiment: GSK3α kinase assay (Caliper LabChip, fluoresceinated peptide substrate). In kind it is biochemical. In short, it runs like this: (§1)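 RT, 20 h incubation; EDTA stop (35 mM). Microfluidic electrophoretic separation of product vs. substrate.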
Assay [2] deals with pTau. As to the kind of experiment: pTau assay (no method described). The class given is cell-based.
Assay [3] deals with GSK3β (Homo sapiens, UniProt P49841). As to the kind of experiment: GSK3β kinase assay (Caliper LabChip, fluoresceinated peptide substrate). In kind it is biochemical. To be noted: first value of the cell; 250 pM enzyme, 20 uM ATP, 20 hours at room temperature; read-out: GSK3β/α (nM): GSK3β IC50. In short, it runs like this: as §1
Sequence of GSK3β (P49841 whole entry, species assumed): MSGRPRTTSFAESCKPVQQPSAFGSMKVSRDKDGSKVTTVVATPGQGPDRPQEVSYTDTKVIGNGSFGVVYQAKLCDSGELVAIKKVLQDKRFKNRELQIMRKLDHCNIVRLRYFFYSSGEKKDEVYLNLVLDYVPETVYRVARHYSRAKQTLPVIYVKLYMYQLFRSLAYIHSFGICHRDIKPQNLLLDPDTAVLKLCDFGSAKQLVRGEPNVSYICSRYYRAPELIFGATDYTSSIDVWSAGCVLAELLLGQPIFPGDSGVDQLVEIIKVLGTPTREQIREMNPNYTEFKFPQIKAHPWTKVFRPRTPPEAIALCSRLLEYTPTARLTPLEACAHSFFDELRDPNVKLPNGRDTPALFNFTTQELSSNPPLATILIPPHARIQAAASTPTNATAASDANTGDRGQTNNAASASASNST

Sequence of GSK3α (P49840 whole entry, species assumed): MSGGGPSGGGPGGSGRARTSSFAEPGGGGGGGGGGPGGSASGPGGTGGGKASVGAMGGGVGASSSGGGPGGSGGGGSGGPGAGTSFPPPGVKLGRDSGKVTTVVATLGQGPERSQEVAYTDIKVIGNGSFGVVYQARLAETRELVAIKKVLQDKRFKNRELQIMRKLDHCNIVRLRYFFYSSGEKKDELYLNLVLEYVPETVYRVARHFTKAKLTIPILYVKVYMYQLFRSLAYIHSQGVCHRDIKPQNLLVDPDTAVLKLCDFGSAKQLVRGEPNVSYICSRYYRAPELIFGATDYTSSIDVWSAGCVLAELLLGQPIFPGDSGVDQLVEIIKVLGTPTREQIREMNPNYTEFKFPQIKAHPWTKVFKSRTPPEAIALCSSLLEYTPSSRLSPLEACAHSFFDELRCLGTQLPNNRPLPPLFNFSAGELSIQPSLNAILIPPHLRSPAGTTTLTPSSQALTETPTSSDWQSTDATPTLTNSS

Consider `CC(=O)c1c(NC(=O)c2ccnc(Nc3ccc(C(F)(F)F)cn3)c2)cnn1C` [Example 206, N-(5-Acetyl-1-methyl-1H-pyrazol-4-yl)-2-((5-(trifluoromethyl)pyridin-2-yl)amino)isonicotinamide], for which the IC50 in assay [1] is 2.7 nM; in assay [2] it was 400 nM; in assay [3], 3.1 nM.
As to `Cn1ncc(NC(=O)c2ccnc(Nc3ccc(C(F)(F)F)cn3)c2)c1C1(C)OCCO1` [Example 207, N-(1-Methyl-5-(2-methyl-1,3-dioxolan-2-yl)-1H-pyrazol-4-yl)-2-((5-(trifluoromethyl)pyridin-2-yl)amino)isonicotinamide], the IC50 in assay [1] amounted to 0.1 nM; in assay [2] it was 1.4 nM; in assay [3] it was 0.09 nM.
Regarding `CC(O)c1c(NC(=O)c2ccnc(Nc3ccc(C(F)(F)F)cn3)c2)cnn1C` (stereo not drawn) [Example 208, N-(5-(1-Hydroxyethyl)-1-methyl-1H-pyrazol-4-yl)-2-((5-(trifluoromethyl)pyridin-2-yl)amino)isonicotinamide], the IC50 turned out to be 3.6 nM in assay [1], 120 nM in assay [2] and 3 nM in assay [3].
As to `Cn1ncc(NC(=O)c2ccnc(Nc3ccc(C(F)(F)F)cn3)c2)c1C(C)(O)C1CC1` (stereo not drawn) [Example 209, N-(5-(1-Cyclopropyl-1-hydroxyethyl)-1-methyl-1H-pyrazol-4-yl)-2-((5-(trifluoromethyl)pyridin-2-yl)amino)isonicotinamide], the IC50 in assay [1] came out at 0.21 nM; in assay [2], 21 nM; in assay [3] it was 0.3 nM.
`O=C(Nc1cnc2cccnn12)c1ccnc(Nc2ccc(C(F)(F)F)cn2)c1` [Example 210, N-(Imidazo[1,2-b]pyridazin-3-yl)-2-((5-(trifluoromethyl)pyridin-2-yl)amino)isonicotinamide]: the results for the IC50 in assay [1], in assay [2] and in assay [3] were 11 nM, 2300 nM and 33 nM, respectively.
